Results on 1 molecule are retold here after US20140142094A1, “KINASE INHIBITORS” (ICAHN SCHOOL OF MEDICINE AT MOUNT SINAI, priority 2011, published 2014).

In one experiment the target is T1, PIK3-β (Homo sapiens, UniProt P42338).
T1 construct: purchased Reaction Biology Corporation
The experiment in a line: Inhibition of PI3K kinases. The class given is biochemical. As to conditions: Table 4; 10 μM ATP; 5-dose IC50 mode. The method, then: (§1) Kinase assays were performed at Reaction Biology Corporation. To a freshly prepared buffer solution was added the target kinase at a concentration of 20 μM. The contents were mixed gently and then compound 1b dissolved in DMSO was added to the reaction mixture in the appropriate concentration. The mixture was incubated at room temperature for 30 min. prior to addition of ATP to initiate the reaction. Compound 1b was tested in a 5-dose IC50 mode with 10-fold serial dilutions starting at 10 μM. Staurosporine was used as a control compound in a 10-dose IC50 mode with 3-fold serial dilutions starting at 20 µM. Reaction was carried out at 10 μM ATP concentration.

For a further experiment, the target named is T2, PIK3-γ (Homo sapiens, UniProt P48736).
T2 construct: purchased Reaction Biology Corporation
The experiment in a line: Inhibition of PI3K kinases. The conditions noted are these: Table 4; 10 μM ATP; 5-dose IC50 mode. The class given is biochemical. The method, then: as §1

A further experiment addresses T3, PIK3-α (Homo sapiens, UniProt P42336).
T3 construct: purchased Reaction Biology Corporation
Kind of experiment: Inhibition of PI3K kinases. In kind it is biochemical. The conditions noted are these: Table 4; 10 μM ATP; 5-dose IC50 mode. The method, then: as §1

The next experiment has as its target T4, PIK3-δ (Homo sapiens, UniProt O00329).
T4 construct: purchased Reaction Biology Corporation
The experiment in a line: Inhibition of PI3K kinases. In kind it is biochemical. The conditions noted are these: Table 4; 10 μM ATP; 5-dose IC50 mode. Here is the method:
as §1

The target in the next experiment is T5, ABL1 (E255K) (Homo sapiens, UniProt P00519, E255K).
T5 construct: purchased Reaction Biology Corporation
Kind of experiment: Inhibition of ABL mutants. The conditions noted are these: 10 μM ATP; 5-dose IC50 mode. The class given is biochemical. The method, then:
as §1, with “gently,” for “gently”, “μM.” for “µM.”

A further experiment has as its target T6, ABL1 (T315I) (Homo sapiens, UniProt P00519, T315I).
T6 construct: purchased Reaction Biology Corporation
Kind of experiment: Inhibition of ABL mutants. The class given is biochemical. As to conditions: 10 μM ATP; 5-dose IC50 mode. The method, then:
as §1, with “gently,” for “gently”, “μM.” for “µM.”

The target in another experiment is T7, ABL1 (Y253F) (Homo sapiens, UniProt P00519, Y253F).
T7 construct: purchased Reaction Biology Corporation
Kind of experiment: Inhibition of ABL mutants. The class given is biochemical. As to conditions: 10 μM ATP; 5-dose IC50 mode. The method, then:
as §1, with “gently,” for “gently”, “μM.” for “µM.”

The target of a further experiment is T8, ABL1 (M351T) (Homo sapiens, UniProt P00519, M351T).
T8 construct: purchased Reaction Biology Corporation
Kind of experiment: Inhibition of ABL mutants. In kind it is biochemical. As to conditions: 10 μM ATP; 5-dose IC50 mode. The method, then: as §1, with “gently,” for “gently”, “μM.” for “µM.”

The next experiment addresses T9, ABL1 (G250E) (Homo sapiens, UniProt P00519, G250E).
T9 construct: purchased Reaction Biology Corporation
The experiment in a line: Inhibition of ABL mutants. As to conditions: 10 μM ATP; 5-dose IC50 mode. The class given is biochemical. The method, then:
as §1, with “gently,” for “gently”, “μM.” for “µM.”

The target in the next experiment is T10, ABL1 (Q252H) (Homo sapiens, UniProt P00519, Q252H).
T10 construct: purchased Reaction Biology Corporation
Kind of experiment: Inhibition of ABL mutants. The class given is biochemical. The conditions noted are these: 10 μM ATP; 5-dose IC50 mode. The method, then:
as §1, with “gently,” for “gently”, “μM.” for “µM.”

The target of the next experiment is T11, ABL1 (H396P) (Homo sapiens, UniProt P00519, H396P).
T11 construct: purchased Reaction Biology Corporation
Kind of experiment: Inhibition of ABL mutants. In kind it is biochemical. The conditions noted are these: 10 μM ATP; 5-dose IC50 mode. The method, then:
as §1, with “gently,” for “gently”, “μM.” for “µM.”

For experiment [1], the system named is K562 (chronic myelogenous leukemia; leukemia cell line +ve for Bcr-Abl). The experiment in a line: Cytotoxicity on K562 cancer cell line. As to conditions: Homo sapiens; K562 cells, 96 h treatment. In kind it is cell-based. The method, then:
(§2) The effect of the compounds described herein on tumor cells was determined by the assay described by Latham et al., Oncogene 12:827-837 (1996). Tumor cells K562 (chronic myelogenous leukemia; leukemia cell line +ve for Bcr-Abl) or DU145 (prostate cancer) were plated in 12-well dishes at a cell density of 2.5×10^4 cells per well. The plated cells were treated 24h. later with a DMSO solution of a compound as described herein at multiple concentrations ranging from 0.01 μM to 100 μM. The plates were examined 96 h. later under an inverted microscope, Olympus CK-2 using a 10× objective, and compound activity was noted by physical observation. When necessary, the total number of viable cells was determined by trypsinizing the wells and counting the number of viable cells, as determined by trypan blue exclusion, using a hemacytometer.

The test system of another experiment is DU145 (prostate cancer). The experiment in a line: Cytotoxicity on DU145 cancer cell line. In kind it is cell-based. As to conditions: Homo sapiens, DU-145; DU145 cells, 96 h treatment. Here is the method: as §2
The target of another experiment is T12, RPIK2 (Homo sapiens, UniProt O43353).
T12 construct: purchased Reaction Biology Corporation
Kind of experiment: Kinase inhibition assay (Reaction Biology). The class given is biochemical. As to conditions: 10 μM ATP; 5-dose IC50 mode. Here is the method:
as §1, with “gently,” for “gently”, “μM.” for “µM.”

Another experiment has as its target T13, ABL2/ARG (Homo sapiens, UniProt P42684).
T13 construct: purchased Reaction Biology Corporation
The experiment in a line: Kinase inhibition assay (Reaction Biology). In kind it is biochemical. The conditions noted are these: 10 μM ATP; 5-dose IC50 mode. The method, then: as §1, with “gently,” for “gently”, “μM.” for “µM.”

Another experiment deals with T14, FGR (Homo sapiens, UniProt P09769).
T14 construct: purchased Reaction Biology Corporation
The experiment in a line: Kinase inhibition assay (Reaction Biology). The class given is biochemical. The conditions noted are these: 10 μM ATP; 5-dose IC50 mode. The method, then:
as §1, with “gently,” for “gently”, “μM.” for “µM.”

The next experiment concerns the target T15, PI3K-δ (Homo sapiens, UniProt O00329).
T15 construct: purchased Reaction Biology Corporation
Kind of experiment: Kinase inhibition assay (Reaction Biology). The class given is biochemical. The conditions noted are these: Table 2; 10 μM ATP; 5-dose IC50 mode. Here is the method:
as §1, with “gently,” for “gently”, “μM.” for “µM.”

For another experiment, the target named is T16, PI3K-α (Homo sapiens, UniProt P42336).
T16 construct: purchased Reaction Biology Corporation
Kind of experiment: Kinase inhibition assay (Reaction Biology). In kind it is biochemical. As to conditions: Table 2; 10 μM ATP; 5-dose IC50 mode. Here is the method: as §1, with “gently,” for “gently”, “μM.” for “µM.”

A further experiment concerns the target T17, ABL1 (Homo sapiens, UniProt P00519).
T17 construct: purchased Reaction Biology Corporation
The experiment in a line: Kinase inhibition assay (Reaction Biology). In kind it is biochemical. As to conditions: 10 μM ATP; 5-dose IC50 mode. The method, then: as §1, with “gently,” for “gently”, “μM.” for “µM.”

T12 sequence (O43353 whole entry): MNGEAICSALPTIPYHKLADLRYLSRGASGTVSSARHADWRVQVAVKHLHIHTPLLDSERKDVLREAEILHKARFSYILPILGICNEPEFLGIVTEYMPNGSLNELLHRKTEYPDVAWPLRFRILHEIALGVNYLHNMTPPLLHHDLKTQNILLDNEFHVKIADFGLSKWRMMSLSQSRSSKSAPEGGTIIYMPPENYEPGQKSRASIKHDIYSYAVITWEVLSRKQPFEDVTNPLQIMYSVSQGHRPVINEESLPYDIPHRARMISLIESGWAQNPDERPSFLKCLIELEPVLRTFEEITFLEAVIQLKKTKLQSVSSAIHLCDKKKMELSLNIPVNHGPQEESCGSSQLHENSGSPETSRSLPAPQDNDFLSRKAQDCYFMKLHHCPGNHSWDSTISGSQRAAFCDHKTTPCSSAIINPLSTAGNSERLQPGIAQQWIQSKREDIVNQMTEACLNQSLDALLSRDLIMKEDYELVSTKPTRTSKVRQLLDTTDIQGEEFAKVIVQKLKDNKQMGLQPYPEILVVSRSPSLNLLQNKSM
T1 sequence (P42338 whole entry): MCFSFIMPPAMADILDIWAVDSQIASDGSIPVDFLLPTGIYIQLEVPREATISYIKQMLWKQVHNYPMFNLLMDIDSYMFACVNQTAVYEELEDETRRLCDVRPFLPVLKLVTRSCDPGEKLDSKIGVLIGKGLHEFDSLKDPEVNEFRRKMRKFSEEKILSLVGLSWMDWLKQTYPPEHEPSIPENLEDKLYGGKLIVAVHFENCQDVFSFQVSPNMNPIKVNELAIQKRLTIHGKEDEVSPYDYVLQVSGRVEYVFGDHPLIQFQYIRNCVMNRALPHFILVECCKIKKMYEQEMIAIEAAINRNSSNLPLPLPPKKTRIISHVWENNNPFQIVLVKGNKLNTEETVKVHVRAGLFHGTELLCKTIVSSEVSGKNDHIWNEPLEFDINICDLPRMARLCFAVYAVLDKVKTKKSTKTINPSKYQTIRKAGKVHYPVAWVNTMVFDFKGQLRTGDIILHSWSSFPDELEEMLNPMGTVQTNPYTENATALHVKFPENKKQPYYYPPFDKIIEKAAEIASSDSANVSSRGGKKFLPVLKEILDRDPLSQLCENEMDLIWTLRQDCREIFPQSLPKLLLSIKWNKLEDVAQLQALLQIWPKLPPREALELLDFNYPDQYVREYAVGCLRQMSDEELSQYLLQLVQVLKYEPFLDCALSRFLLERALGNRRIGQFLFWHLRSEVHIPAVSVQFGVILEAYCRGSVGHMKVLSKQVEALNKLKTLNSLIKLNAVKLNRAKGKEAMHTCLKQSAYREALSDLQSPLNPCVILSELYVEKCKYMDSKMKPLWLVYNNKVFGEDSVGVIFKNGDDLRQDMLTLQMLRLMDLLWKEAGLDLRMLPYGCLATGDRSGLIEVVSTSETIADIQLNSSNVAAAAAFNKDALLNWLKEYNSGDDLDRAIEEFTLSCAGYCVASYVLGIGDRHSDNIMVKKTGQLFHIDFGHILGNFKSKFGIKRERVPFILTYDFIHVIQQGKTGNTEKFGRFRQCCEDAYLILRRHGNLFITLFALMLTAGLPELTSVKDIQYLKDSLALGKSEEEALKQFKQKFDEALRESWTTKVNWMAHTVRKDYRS
T1 sequence (P27986 whole entry partner): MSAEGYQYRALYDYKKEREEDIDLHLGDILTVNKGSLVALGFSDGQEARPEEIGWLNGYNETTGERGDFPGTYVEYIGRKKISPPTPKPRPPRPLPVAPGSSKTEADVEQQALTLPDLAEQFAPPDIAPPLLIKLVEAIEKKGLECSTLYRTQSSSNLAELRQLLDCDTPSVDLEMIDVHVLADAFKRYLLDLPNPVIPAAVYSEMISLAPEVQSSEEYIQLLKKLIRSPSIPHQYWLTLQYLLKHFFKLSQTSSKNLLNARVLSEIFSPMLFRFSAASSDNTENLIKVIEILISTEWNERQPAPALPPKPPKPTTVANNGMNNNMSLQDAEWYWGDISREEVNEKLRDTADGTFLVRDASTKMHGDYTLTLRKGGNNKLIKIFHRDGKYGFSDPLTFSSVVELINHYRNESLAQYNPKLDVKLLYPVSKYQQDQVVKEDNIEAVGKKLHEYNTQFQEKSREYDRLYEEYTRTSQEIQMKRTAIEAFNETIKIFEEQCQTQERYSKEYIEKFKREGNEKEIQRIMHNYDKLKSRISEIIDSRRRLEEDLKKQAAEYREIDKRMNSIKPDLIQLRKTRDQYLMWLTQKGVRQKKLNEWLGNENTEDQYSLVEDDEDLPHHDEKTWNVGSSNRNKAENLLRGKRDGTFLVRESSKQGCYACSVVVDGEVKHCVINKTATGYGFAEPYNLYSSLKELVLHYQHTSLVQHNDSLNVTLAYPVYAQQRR
T4 sequence (O00329 whole entry): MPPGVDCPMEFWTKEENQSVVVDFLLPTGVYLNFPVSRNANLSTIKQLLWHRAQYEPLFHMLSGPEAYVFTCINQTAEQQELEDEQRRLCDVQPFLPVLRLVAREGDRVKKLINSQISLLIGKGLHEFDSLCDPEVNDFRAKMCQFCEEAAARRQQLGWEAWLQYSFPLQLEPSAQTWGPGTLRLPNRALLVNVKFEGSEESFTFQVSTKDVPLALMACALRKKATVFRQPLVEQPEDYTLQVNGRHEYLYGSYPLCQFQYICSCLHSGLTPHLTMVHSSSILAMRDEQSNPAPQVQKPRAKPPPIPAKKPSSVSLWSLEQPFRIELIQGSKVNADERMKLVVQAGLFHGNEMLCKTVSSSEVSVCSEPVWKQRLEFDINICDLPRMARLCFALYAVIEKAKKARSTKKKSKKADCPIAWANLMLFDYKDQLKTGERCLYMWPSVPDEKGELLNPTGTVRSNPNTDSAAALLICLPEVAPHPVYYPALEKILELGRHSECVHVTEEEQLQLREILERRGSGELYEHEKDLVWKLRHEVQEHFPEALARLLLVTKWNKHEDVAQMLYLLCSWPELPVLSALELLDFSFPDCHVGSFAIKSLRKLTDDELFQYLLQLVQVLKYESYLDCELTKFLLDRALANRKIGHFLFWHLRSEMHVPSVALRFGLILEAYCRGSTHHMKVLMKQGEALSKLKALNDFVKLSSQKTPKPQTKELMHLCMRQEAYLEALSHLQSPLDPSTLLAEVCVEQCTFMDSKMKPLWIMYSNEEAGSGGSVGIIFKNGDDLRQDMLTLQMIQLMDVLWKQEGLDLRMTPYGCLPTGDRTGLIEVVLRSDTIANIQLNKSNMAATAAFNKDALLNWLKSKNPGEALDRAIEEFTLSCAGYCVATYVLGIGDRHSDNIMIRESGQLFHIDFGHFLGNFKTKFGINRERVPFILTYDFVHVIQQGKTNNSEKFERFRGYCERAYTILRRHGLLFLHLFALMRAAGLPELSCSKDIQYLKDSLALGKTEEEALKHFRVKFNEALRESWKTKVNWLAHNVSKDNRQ
T4 sequence (P27986 whole entry partner): as the sequence (P27986 whole entry partner) above
T15 sequence (O00329 whole entry): as the sequence (O00329 whole entry) above
T15 sequence (P27986 whole entry partner): as the sequence (P27986 whole entry partner) above
T13 sequence (P42684 whole entry): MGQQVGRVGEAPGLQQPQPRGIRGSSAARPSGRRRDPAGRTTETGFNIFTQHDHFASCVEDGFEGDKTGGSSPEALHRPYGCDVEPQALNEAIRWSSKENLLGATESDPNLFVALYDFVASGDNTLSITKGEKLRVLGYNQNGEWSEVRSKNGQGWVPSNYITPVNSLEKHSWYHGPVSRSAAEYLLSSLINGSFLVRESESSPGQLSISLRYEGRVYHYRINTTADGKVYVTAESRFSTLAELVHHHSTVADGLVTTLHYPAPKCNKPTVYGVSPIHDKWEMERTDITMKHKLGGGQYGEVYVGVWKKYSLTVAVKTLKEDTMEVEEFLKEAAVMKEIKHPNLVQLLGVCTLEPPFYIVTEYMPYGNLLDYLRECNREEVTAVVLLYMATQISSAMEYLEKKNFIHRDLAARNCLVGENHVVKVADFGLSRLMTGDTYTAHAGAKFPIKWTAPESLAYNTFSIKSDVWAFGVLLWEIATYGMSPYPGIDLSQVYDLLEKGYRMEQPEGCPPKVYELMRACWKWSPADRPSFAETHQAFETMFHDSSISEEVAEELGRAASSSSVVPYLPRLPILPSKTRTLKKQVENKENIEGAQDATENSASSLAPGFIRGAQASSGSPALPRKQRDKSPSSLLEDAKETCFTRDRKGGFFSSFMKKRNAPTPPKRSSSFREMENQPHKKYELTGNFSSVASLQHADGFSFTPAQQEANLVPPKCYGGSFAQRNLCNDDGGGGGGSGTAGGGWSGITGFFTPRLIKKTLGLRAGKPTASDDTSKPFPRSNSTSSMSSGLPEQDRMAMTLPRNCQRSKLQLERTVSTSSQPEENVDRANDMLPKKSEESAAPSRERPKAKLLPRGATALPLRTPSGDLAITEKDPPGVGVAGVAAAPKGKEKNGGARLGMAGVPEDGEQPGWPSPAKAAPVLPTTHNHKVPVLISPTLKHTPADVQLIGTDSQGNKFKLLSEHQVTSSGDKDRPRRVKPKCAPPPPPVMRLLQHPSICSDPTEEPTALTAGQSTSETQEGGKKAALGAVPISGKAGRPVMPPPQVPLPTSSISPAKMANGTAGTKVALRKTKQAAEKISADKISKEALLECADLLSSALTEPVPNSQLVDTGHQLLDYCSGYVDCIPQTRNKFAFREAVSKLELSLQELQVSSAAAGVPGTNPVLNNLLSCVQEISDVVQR

`CN1CCN(c2ccc(Nc3ncc4c(n3)S/C(=C/c3ccc([N+](=O)[O-])cc3)C(=O)N4)cc2)CC1` [Compound 1b, (E)-2-(4-(4-Methylpiperazin-1-yl)phenylamino)-7-(4-nitrobenzylidene)-5H-pyrimido[4,5-b][1,4]thiazin-6(7H)-one]: the IC50 against PIK3-β was determined as 10 nM; against PIK3-γ, 22 nM; against PIK3-α it was 4 nM; against PIK3-δ it was 7 nM; against ABL1 (E255K) it was 106 nM; against ABL1 (T315I), 2730 nM. For the same molecule, the IC50 against ABL1 (Y253F) was 60 nM; on ABL1 (M351T) it was 12 nM; on ABL1 (G250E), 35 nM; against ABL1 (Q252H), 10 nM; at ABL1 (H396P), 9 nM; in experiment [1], below 1000 nM. For the same molecule, the IC50 was below 1000 nM in the experiment with DU145 (prostate cancer); 68 nM against RPIK2; 30 nM against ABL2/ARG; 124 nM against FGR; 20 nM at PI3K-δ; 13 nM on PI3K-α. The IC50 against ABL1 amounted to 19 nM.

For orientation: IC50 means the concentration that gives 50% inhibition. Higher therefore signals weaker potency in that assay.
